Consider eight molecules from US12668607B2, “Heterocyclic amide compound, preparation method therefor and use thereof” (SHANGHAI JEYOU PHARMACEUTICAL CO., LTD., priority 2019, dated 2026).

Each structure is given as a SMILES string.

One test deals with THP1-Dual™ cells. The test is described as follows: THP-Dual in vitro binding assay (THP1-Dual reporter cells, Lucia luciferase/QUANTI-Luc). Format: cell-based, human. Conditions: 30 min compound exposure, wash, 18 h incubation, IF-α/β activity by QUANTI-Luc. The source says:
The THP1-Dual™ cells used in the assay (InvivoGen, Catalog code: thpd-nfis) were constructed by stable integration of two inducible reporter genes in the human monocyte-like cell line THP1. The promoter sequence of the secretory embryo alkaline phosphatase (SEAP) reporter gene comprised an IFN-β basal promoter, 5 copies of NF-κB coexpression transcriptional response elements (NF-κB consensus transcriptional response elements) at the upstream and 3 copies of c-Rel binding sites. The secreted luciferase (Lucia) reporter gene was driven by 5 interferon-stimulated response elements (IFN-stimulated response elements) and a basal promoter of ISG54, thus making it possible to study two major downstream signaling pathways of STING simultaneously: the NF KB pathway was studied by assaying the SEAP activity; and the IRF pathway was studied by assessing the activity of Lucia luciferase.
To each well of a 96-well plate were added 20 μL of reference compounds or the compounds to be detected followed by the addition of 180 μL of THP1-Dual™ cell-containing FBS-free RPMI-1640 culture medium (about 90,000 cells/well). After incubating at 37° C. for 30 min under 5% CO2, the plate was centrifuged at 1000 rpm for 10 min, the supernatant was discarded, and the plate was washed twice with RPMI-1640 at 200 μL/well, and incubated for 18 h with RPMI-1640 at 200 µL/well. IF-α/β activity was quantified using QUANTI-Luc™ prepared and used according to the manufacturer's instructions.

In the next test the target is T1, human STING protein (Homo sapiens, UniProt Q86WV6, H232R).
T1 construct: from the 140th amino acid to the 379th amino acid; 6His-SUMO (N, cleaved yes); made in house
As to the kind of experiment: STING in vitro binding assay (fluorescence polarization, FP affinity assay). Conditions: competition with 30 nM fluorescein-labeled c-di-GMP, 10 μM recombinant human wild-type STING C-terminal protein (aa 140-379), 30 min room temperature. As to the method: Fluorescence polarization assay (FP assay) was used to detect the affinities of compounds to a human STING protein. The reaction system contained a certain amount of fluorescein labeled C-di-GMP and compounds to be detected with different concentrations, and when the C-terminal protein of the recombinant human STING was added, the two small molecules were competitively bound with the protein. The bound fluorescein-labeled c-di-GMP rotated slowly in the liquid phase, and at this point, the degree of fluorescence polarization detected was also high. The fluorescence polarization degree was in inverse relation with the concentrations and the affinities of the compounds to be detected. By detecting the magnitude of the polarized light in the reaction system, the affinities of the compounds to be detected to human STING could be accurately known.
The N-terminal of the recombinant STING protein was a 6His-SUMO sequence to facilitate correct protein folding and purification, and after protease cleavage, the C-terminal STING was used for FP assay.
In FP assay, a 384-well plate was used, with the fluorescein-labeled c-di-GMP with a final concentration of 30 nM, 10 μM human STING protein, and either reference compounds with different concentrations or the compounds to be detected added into 10 μL of the reaction system each well. The plate was centrifuged at 1000 g for 1 min, incubated at room temperature for 30 min in the dark and read with Envision.

A further test relates to colon cancer cells CT26. The test is described as follows: Drug efficacy evaluation in CT26 syngeneic mouse model. The format is in vivo, Balb/C mice. Conditions: CT26 subcutaneous tumors. As to the method:
The compound efficacy evaluation was carried out by a CT26 syngeneic mouse model in this experiment. 3E5 colon cancer cells CT26 (ATCC-CRL-2638) were inoculated subcutaneously into 6-8 week-old Balb/C mice (Shanghai Lingchang Biotechnology Co., Ltd.), and the mice were randomly divided grouped, 6 mice per group when the tumor volume reached 100 mm^3. Intratumoral administration was performed on day 1 after grouping. Compound 1 was administered at a dose of 1 μg per mouse, 0.1 μg per mouse and 0.01 μg per mouse, respectively, for each group. Tumor volume measurements were taken three times a week after the start of administration. The calculation formula for tumor volume was: V=0.5a×b^2, with a and b representing the long and short diameters of the tumor, respectively. Each point is the mean and standard error of mean (SEM) of the tumor volume. Differences between control (saline) and administered groups were statistically analyzed using two-way ANOVA (statistical differences on day 15: Prism 8, ****p<0.0001).

T1 sequence (Q86WV6 140-379 H232R): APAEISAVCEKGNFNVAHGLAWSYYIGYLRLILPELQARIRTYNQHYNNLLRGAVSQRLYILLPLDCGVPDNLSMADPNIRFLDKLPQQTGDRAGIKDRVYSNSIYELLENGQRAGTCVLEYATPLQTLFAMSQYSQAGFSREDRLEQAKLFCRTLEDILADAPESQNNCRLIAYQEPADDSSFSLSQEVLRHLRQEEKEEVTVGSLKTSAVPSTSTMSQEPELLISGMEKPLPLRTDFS

In the test on THP1-Dual™ cells (Homo sapiens), `CCn1nc(C)c2c1C(=O)/N=C1\Nc3cc(C(N)=O)cc(OCCCO[C@H]4[C@@H](OC)O[C@H](CO)[C@@H](O)[C@@H]4O)c3N1C/C=C/CN1/C(=N\C(=O)c3cc(C)nn3CCCCC2)Nc2cc(C(N)=O)cc(OC)c21` [Compound 5] had an EC50 of 60 nM. The IC50 at human STING protein was determined as 1500 nM.
In the same order, the values of `CCn1nc(C)cc1C(=O)/N=c1/[nH]c2cc(C(N)=O)cc(OC)c2n1C/C=C/Cn1/c(=N/C(=O)c2cc(C)nn2CC)[nH]c2cc(C(N)=O)cc(OCCCO[C@H]3[C@H](OC)O[C@H](CO)[C@H]3O)c21` [Compound 3] are 40 nM and 3700 nM.
The like results for `CCn1nc(C)cc1C(=O)/N=c1/[nH]c2cc(C(N)=O)cc(OCCCN3CCOCC3)c2n1C/C=C/Cn1/c(=N/C(=O)c2cc(C)nn2CC)[nH]c2cc(C(N)=O)cc(OCCCO[C@H]3[C@@H](OC)O[C@H](CO)[C@@H](O)[C@@H]3O)c21` [Compound 4] were, in that order, 520 nM and 1600 nM.
`Nc1ncnc2c1ncn2[C@@H]1O[C@@H]2COP(O)(=S)O[C@@H]3C(O)[C@@H](COP(O)(=S)O[C@H]2[C@H]1O)O[C@H]3n1cnc2c(N)ncnc21` (some centres unmarked) [ML RR-S2 CDA, reference compound] returned an EC50 with THP1-Dual™ cells of 18200 nM. In other words, the double-digit micromolar range.
With `CCn1nc(C)cc1C(=O)/N=c1/[nH]c2cc(C(N)=O)cc(OC)c2n1C/C=C/Cn1/c(=N/C(=O)c2cc(C)nn2CC)[nH]c2cc(C(N)=O)cc(OCCCN3CC4(COC4)C3)c21` [Compound 7], in the test on THP1-Dual™ cells (Homo sapiens), the midpoint of the response, the EC50, lay at 80 nM. Further, the IC50 on human STING protein was determined as 3800 nM.
In turn, `CCn1nc(C)cc1C(=O)/N=c1/[nH]c2cc(C(N)=O)cc(OC)c2n1C/C=C/Cn1/c(=N/C(=O)c2cc(C)nn2CC)[nH]c2cc(C(N)=O)cc(OCCCO[C@H]3[C@@H](OC)O[C@H](CO)[C@@H](O)[C@@H]3O)c21` [Compound 1] showed an EC50 in the test with THP1-Dual™ cells (Homo sapiens) of 21 nM. Moreover, the “tumor growth speed compared with the control group” value in the test on colon cancer cells CT26 (intratumoral administration day 1, 1, 0.1 and 0.01 μg per mouse, two-way ANOVA day 15 ****p<0.0001 vs saline) is given as “significantly slowed down”. Moreover, the “inhibition of tumor growth in mice (dose relation)” value in the test on colon cancer cells CT26 (intratumoral, 1, 0.1 and 0.01 μg per mouse) is recorded as “dose-dependent”. For the same molecule, on human STING protein, the IC50 is 400 nM.
Molecule `CCn1nc(C)cc1C(=O)/N=c1/[nH]c2cc(C(N)=O)cc(OC)c2n1C/C=C/Cn1/c(=N/C(=O)c2cc(C)nn2CC)[nH]c2cc(C(N)=O)cc(OCCN3CCCC4(CCNC4)C3)c21` (centres unmarked) [Compound 6] yielded an EC50 in the test on THP1-Dual™ cells (Homo sapiens) of 2100 nM. Moreover, on human STING protein, the IC50 came out at 2200 nM.
The like results for `CCn1nc(C)cc1C(=O)/N=c1/[nH]c2cc(C(N)=O)cc(OC)c2n1C/C=C/Cn1/c(=N/C(=O)c2cc(C)nn2CC)[nH]c2cc(C(N)=O)cc(OCCCOC(=O)[C@@H](N)C(C)C)c21` [Compound 2] were, in that order, 8 nM and 1700 nM.

As usually defined, the EC50 is the concentration that produces a half-maximal response. Read a low EC50 as a more potent agent. The term IC50 denotes the concentration that gives 50% inhibition.
